Viability and inhibition data for eight compounds are collected here from ChEMBL document CHEMBL1157320, “Hepatoprotective sesquiterpene glycosides from Sarcandra glabra” (J Nat Prod, 2006).

Data set [1] is described as follows: Cytotoxicity against rat WB-F344 cells assessed as cell survival rate at 0.1 mM by MTT method relative to control. It counts as cell-based. The settings on record: read-out: Activity. On the technique in general: Tetrazolium dyes change colour on reduction, which living cells bring about.
Data set [2] in a line: Hepatoprotective activity in rat WB-F344 cells assessed as inhibition of D-galactosamine-induced toxicity at 0.1 mM by MTT method relative to control. It counts as functional.

For the compound `C=C1[C@H]2C[C@H]2[C@]2(C)[C@H](O)[C@]3(O[C@@H]4O[C@H](CO)[C@@H](O)[C@H](O)[C@H]4O)OC(=O)C(C)=C3C[C@@H]12`, the viability at 100 µM in data set [1] came out at 45.5%. Further, the inhibition at 100 µM in data set [2] stood at 26%.
Turning to `C=C1C=C[C@H](O[C@@H]2O[C@H](CO)[C@@H](O)[C@H](O)[C@H]2O)[C@]2(C)C[C@@H]3OC(=O)C(C)=C3C[C@@H]12` [SARCAGLABOSIDE B], the viability at 100 µM in data set [1] is 74.9%. Moreover, in data set [2], the inhibition at 100 µM was 65.9%.
For `COC(=O)c1cc(OC)c2c(c1-c1c(CO)cc(OC)c3c1OCO3)OCO2` [BICYCLOL] the same measures were 46.6% and 27.4%.
The corresponding values for `CC1=C2C/C=C(\CO[C@@H]3O[C@H](CO[C@@H]4OC[C@](O)(CO)[C@H]4O)[C@@H](O)[C@H](O)[C@H]3O)CC/C=C(\C)C[C@@H]2OC1=O` [SARCAGLABOSIDE E] are 42.4% and 21.7%.
For `C=C1CC[C@H](O[C@@H]2O[C@H](CO)[C@@H](O)[C@H](O)[C@H]2O)[C@]2(C)C[C@@H]3OC(=O)C(C)=C3C[C@@H]12` [SARCAGLABOSIDE A], in data set [1], the viability at 100 µM stood at 47.5%. Besides, in data set [2], the inhibition at 100 µM stood at 28.7%.
For `CC1=C2C[C@@H]3[C@@](C)(C=C2OC1=O)[C@@H]1C[C@@H]1[C@]3(O)CO[C@@H]1O[C@H](CO)[C@@H](O)[C@H](O)[C@H]1O` [CHLORANOSIDE A] the same measures were 54.5% and 38.2%.
For `C=C[C@]1(C)C[C@@H]2OC(=O)C(C)=C2C[C@H]1C(=C)CO[C@@H]1O[C@H](CO)[C@@H](O)[C@H](O)[C@H]1O` [SARCAGLABOSIDE C] the same measures were 53% and 36.1%.
For `C=C[C@]1(C)C[C@@H]2OC(=O)C(C)=C2C[C@H]1C(=C)CO[C@@H]1O[C@H](CO[C@@H]2OC[C@](O)(CO)[C@H]2O)[C@@H](O)[C@H](O)[C@H]1O` [SARCAGLABOSIDE D] the same measures were 46.3% and 27%.

The term inhibition denotes the relative decrease from the control value, in per cent.
